What was measured:
[1] = tested on: non-tumor-bearing Fischer 344 rats; assay: Lethality (non-tumor bearing), within 7-10 days after administration; format: in vivo, Fischer 344 rat
Method: Lethality (Non-Tumor Bearing)
The toxicity was assessed by lethality within 7-10 days after administration of (R)-, (S)-, or (R,S)-ifosfamide in non-tumor-bearing Fischer 344 rats.

[2] = tested on: tumor-bearing F344 rats (MatB rat mammary carcinoma); assay: Lethality (tumor-bearing), toxic deaths; format: in vivo; conditions: for toxic deaths (of animals treated): tumor-bearing
Method: (§1) In order to help clarify the relative efficacies and toxicities of (S)-IFF and (R)-IFF, the effect of these enantiomers in F344 rats was investigated. Both non-tumor-bearing animals and those bearing a MatB rat mammary carcinoma were used in this study. The relative lethality, bone marrow suppression, weight loss, antitumor activity, and pharmacokinetics were determined for (R)-IFF, (S)-TFF and (R,S)-IFF.
Animal Model and Tumor Cells
(§2) MatB cells are maintained in vitro in α-minimum essential medium (GIBCO, Grand Island, N.Y.) supplemented with 1.3% sodium pyruvate, 2.6% glutamine, 1.3% non-essential amino acids, 10% fetal calf serum, and 100 units/ml gentamicin. Cells are maintained at 37° C. under 5% CO2. A suspension of 5×10^5 cells is injected s.c. into the flanks of female F344 rats weighing 160-200 g. Within 7-10 days, when there is a palpable nodule, the rats are lightly anesthetized with ether, and a single i.v. dose of ifosfamide is injected via the tail vein. The tumor size and animal weights are monitored every other day. On the basis of the conventional rat human dose conversion factor of 1:7 and idealised human body weights and surface areas of 70 kg and 1.5 m^2, the dose of 100 mg/kg in the rat represents approximately 600 mg/m^2 in humans, which is in the general range of clinical single doses, as described by De Kraker, supra. Statistical analysis was performed using an impaired Student's s test or Pearson's .chi.^2 analysis.
There were differences resulting in the presence of a tumor in these animals with regard to the effects of these treatments, and the data are therefore presented for each situation separately.

WBC = assay: Bone marrow suppression, WBC counts; format: in vivo, Fischer (F344) rat; conditions: for myelosuppression (WBC): 1 week after 125 mg/kg i.v.
Method: (§3) FIGS. 1A and 1B show peripheral blood counts obtained in tumor-bearing rats that received saline or ifosfamide treatment. […] There were 3-5 animals in each group. The following abbreviations etc. apply:
(§4) Determination of Myelotoxicity
(§5) For the studies of myelotoxicity, at least three animals/groups had blood obtained by cardiac puncture with a 23-gauge needle. The samples were heparinized and both WBC and platelet counts were determined using a Coulter Counter.
(§6) Measurements were made prior to and 1 week after i.v. injection of 125 mg/kg of (R,S)-, (R)-, or (S)-ifosfamide. […] In the presence of a tumor, the effects of a colony-stimulating factor are evidenced by higher WBC even prior to drug administration. Because the WBC progressively rises over time with exposure to the tumor, the intergroup variation in absolute WBC relates to differences in time from tumor inoculation to baseline WBC measurement and then drug administration.

platelets = assay: Bone marrow suppression, platelet counts; format: in vivo, Fischer (F344) rat; conditions: for thrombocytopenia: 1 week after 125 mg/kg i.v.
Method: as §3, §4, §5, §6

[3] = CNS toxicity monitoring in 7 female cancer patients; format: in vivo, human; conditions: racemate 3 g/m^2, 3 h infusion, mesna
Method: (§7) In a first investigation, the stereoselective urinary excretion of the parent drug, i.e. racemic ifosfamide, and its metabolites, was investigated. This followed a single dose of ifosfamide in 7 female cancer patients, while monitoring for CNS toxicity.
(§8) Patients received a 3 h infusion of ifosfamide (3 g/m^2) with mesna uroprotection, total urine output was collected for 27 h, and urine samples were analysed by enantioselective gas chromatography, as described by Granvil et al, J.Chromatogr. 622:21-31 (1993).
Since ifosfamide was the sole anti-cancer drug administered for the first chemotherapy cycle, toxicity data were not confounded by the effects of other anti-neoplastic agents.

[4] = tested on: childhood rhabdomyosarcoma (HxRh28); conditions: immunoincompetent female CBA/CaJ mice; cited from earlier work
[5] = single dose; cited from earlier work
[6] = cited from earlier work
[7] = Weight loss, every-other-day measurements; format: in vivo, F344 rat; conditions: 125 mg/kg
Method: as §2
Weight loss was determined by every-other-day measurements of groups of at least three rats.

[8] = tested on: MatB rat mammary carcinoma; assay: Antitumor efficacy in rats, enantiomer comparison; format: in vivo, Fischer (F344) rat; conditions: R-isomer; summary statement
Method: as §1
as §2, with “Statistical analysis was performed using an impaired Student's s test or Pearson's .chi.^2 analysis.” left out

[9] = Incubation with human liver microsomes, 2 and 3-dechlorometabolites by chiral assays; format: in vitro ADME; conditions: for 2 and 3-dechloro metabolites produced, R and S-ifosfamide incubated separately: separate enantiomers, compared with racemate results
[10] = Pharmacokinetics in rat plasma (GC-MS), AUC
[11] = Analysis of urine of 11 patients after 3 hour infusion of racemic ifosfamide; format: in vivo, human
Method: This is based on the results of the analysis of the urine of 11 patients who received a 3 hour infusion of racemic ifosfamide. Patients had not received chemotherapy for a year and ifosfamide was the only drug administered during the pharmacokinetic study.

[12] = Stereoselective urinary excretion of ifosfamide and metabolites in 7 female cancer patients; format: in vivo, human; conditions: patient with severe neurotoxicity vs 6 others
Method: as §7, §8
In patients with excessive N-dechloroethylation, R-ifosfamide could have an improved efficacy/toxicity.

[13] = CBA/CaJ mice; cited from earlier work
[14] = tested on: MatB subline selected for resistance to nitrogen mustards; assay: Melphalan resistance of MatB subline in vivo; parameters: species or system rat

O=P1(NCCCl)OCCCN1CCCl (racemic) [(R,S)-IFF, ifosfamide, reference compound]
lethality (rats dead of rats treated) ([1]; 150 mg/kg): 2 of 4 | lethality (rats dead of rats treated) ([1]; 100 and 125 mg/kg): 1 of 5 | toxic deaths (of animals treated) ([2]; 100 mg/kg): 0 of 5 | toxic deaths (of animals treated) ([2]; 125 mg/kg): 4 of 10 | toxic deaths (of animals treated) ([2]; 150 mg/kg): 5 of 5 | myelosuppression (WBC) (WBC; tumor-bearing rats): significant myelosuppression | myelosuppression (WBC) (WBC; tumor-free rats): myelosuppression is observed | thrombocytopenia (platelets; non-tumor-bearing rats): significant thrombocytopenia | severe neurotoxic syndrome (patients) ([3]; 7 female patients): One patient had a severe neurotoxic syndrome | neurotoxic symptoms ([3]; one patient): somnolence, dizziness, lethargy, tremors, and hallucinations | efficacy against HxRh28 xenograft, difference between stereoisomers [4]: no statistically significant differences | compound metabolised through the N-dechloroethylation pathway [5]: 15-50% | drug excreted unchanged [5]: 20-40% | CNS side-effects ([6]; oral formulation): major dose-limiting side-effect | dose at which CNS side-effects appeared, oral versus iv ([6]; oral vs iv): much lower dose | chloroacetaldehyde levels after oral dosing ([6]; oral): higher levels of chloroacetaldehyde | metabolism after oral dosing ([6]; oral): much more metabolism

O=[P@]1(NCCCl)OCCCN1CCCl [(R)-IFF, dexifosfamide]
lethality (rats dead of rats treated) ([1]; 150 mg/kg): 2 of 4 | lethality (rats dead of rats treated) ([1]; 100 and 125 mg/kg, listed as (R)-ifosfamide): 1 of 5 | toxic deaths, compared to (R,S)-IFF ([2]; 125 mg/kg, chi-square): no difference | toxic deaths, (R)-IFF compared to (S)-IFF ([2]; 125 mg/kg, chi-square, P=0.017): significant difference | toxic deaths, (R)-IFF versus either (S)-IFF or (R,S)-IFF ([2]; 150 mg/kg, P=0.067): no significant difference | toxic deaths (of animals treated) ([2]; 100 mg/kg): 1 of 5 | toxic deaths (of animals treated) ([2]; 125 mg/kg): 5 of 10 | toxic deaths (of animals treated) ([2]; 150 mg/kg): 5 of 5 | myelotoxicity in the Fischer rat (WBC; summary statement): more myelotoxic | myelosuppression (WBC) (WBC; tumor-bearing rats): significant myelosuppression | myelosuppression (WBC) (WBC; tumor-free rats): myelosuppression is observed | platelet suppression compared to (R,S)- or (S)-ifosfamide (platelets; non-tumor-bearing rats, 125 mg/kg i.v., P<0.05): greater platelet suppression | thrombocytopenia (platelets; non-tumor-bearing rats): significant thrombocytopenia | weight loss [7]: appears greatest | weight loss, statistical significance [7]: significantly so only at one time point | effectiveness in treating the tumors in the rats [8]: trend to the R-isomer being more effective | 2 and 3-dechloro metabolites produced, R and S-ifosfamide incubated separately [9]: broadly the same | efficacy against HxRh28 xenograft, difference between stereoisomers [4]: no statistically significant differences | clearance compared to (S)-IFF ([10]; rat): cleared more quickly | AUC, AUCRS versus AUCR ([10]; rat plasma, 100 mg/kg i.v.): no statistically significant difference | AUC, AUCR versus AUCS ([10]; rat plasma, 100 mg/kg i.v., P<0.01): statistically significant differences | metabolism via the activation pathway, compared to (S)-IFF ([10]; rat, inferred from AUC): metabolized to a greater degree

O=[P@@]1(NCCCl)OCCCN1CCCl [(S)-IFF, levoifosfamide]
lethality (rats dead of rats treated) ([1]; 150 mg/kg): 0 of 4 | lethality (rats dead of rats treated) ([1]; 100 and 125 mg/kg, listed as (S)-ifosfamide): 0 of 5 | toxic deaths, compared to (R,S)-IFF ([2]; 125 mg/kg, chi-square): no difference | toxic deaths (of animals treated) ([2]; 100 mg/kg): 0 of 5 | toxic deaths (of animals treated) ([2]; 125 mg/kg): 2 of 10 | toxic deaths (of animals treated) ([2]; 150 mg/kg, listed as (S)-ifosfamide): 3 of 5 | myelosuppression (WBC) (WBC; tumor-bearing rats): no such effect after (S)-IFF where the WBC is higher | myelosuppression (WBC) (WBC; tumor-free rats): not statistically significant | thrombocytopenia (platelets; non-tumor-bearing rats): significant thrombocytopenia | platelet suppression compared to (R)- or (R,S)-ifosfamide (platelets; tumor-bearing rats, 125 mg/kg i.v.): significantly less | origin of side-chain metabolites in urine [11]: side-chain metabolites come from S-ifosfamide more than from R-ifosfamide | excretion of dechloroethylated metabolites from S-ifosfamide [12]: much higher excretion | 2 and 3-dechloro metabolites produced, compared to R-ifosfamide ([9]; racemic ifosfamide incubated): greater amounts | 2 and 3-dechloro metabolites produced, R and S-ifosfamide incubated separately [9]: broadly the same | efficacy against HxRh28 xenograft, difference between stereoisomers [4]: no statistically significant differences | plasma pharmacokinetics, differences [13]: No statistically significant differences | metabolism via N-dechloroethylation, compared to (R)-IFF ([10]; stated with the rat AUC results): metabolized to a greater extent

N[C@@H](Cc1ccc(N(CCCl)CCCl)cc1)C(=O)O [melphalan]
resistance to melphalan [14]: at least 4 fold
